Data: patent US6943190B2, “Method of using pyruvate and/or its derivatives for the treatment of cytokine-mediated inflammatory conditions” (University of Pittsburgh-of the Commonwealth System of …, priority 2001, dated 2005)

What was measured:
[1] = Stability of pyruvate esters in aqueous solution; type: physicochemical; details: in the presence of calcium salts; compared with sodium pyruvate
[2] = tested on: Caco-2 human enterocytes; assay: Cytomix-induced hyperpermeability of Caco-2 monolayers (FD4 clearance); type: cell-based; details: 48 h incubation with cytomix (IFN-γ, IL-1β, TNF-α); both of the highest concentrations; P<0.001
Method: To test for the effect of ethyl pyruvate on a stabilizing calcium salt solution (REPS) in a cytokine-induced intestinal epithelial hyperpermeability condition, an in vitro model of intestinal epithelial injury due to inflammation, such as might occur in cases of inflammatory bowel disease (i.e., Crohn's disease or ulcerative colitis) was used.
Exemplary materials and methods include the following, while minor modifications can be made: Caco-2 human enterocytes (10^5 cells/well) were plated on permeable filters in 12-well Transwell bicameral chambers (COSTAR, Corning, N.Y.) and fed biweekly. Permeability studies were carried out using confluent monolayers between 21-28 d after seeding. The permeability probe was FITC-labeled dextran (4400 Da; FD4). A sterile stock solution of FD4 (25 mg/ml) was prepared by dissolving the compound in HEPES-buffered DMEM complete medium (pH 6.8) and passing it through a filter ([…] pore size). For permeability studies, the medium was aspirated from the apical and basolateral sides of the Transwell chambers. FD4 solution (200 μl) was added to the apical compartments. […] (Menconi et al., Am. J. Physiol. (1997) 272:G1007-G1021.) The permeability of monolayers was expressed as a clearance (C), which was calculated as previously described. […]

[3] = tested on: IL6; assay: Peak serum IL6 in endotoxemic mice (ELISA); type: in vivo, Balb/C mice; details: pretreatment, data not shown
Method: Endotoxin shock. Mice were injected with endotoxin (Escherichia coli lipopolysaccharide, LPS 0111:B4; Sigma Chemical Co, St. Louis, Mo.) that was dissolved in sterile pyrogen-free saline at stock concentrations of 10 mg/ml. LPS solutions were sonicated for 20 min immediately prior to use for each experiment. Mice received an LD75 dose of LPS (5 mg/kg, i.p.). Blood was collected at different times after LPS administration, allowed to clot for 2 h at room temperature, then centrifuged for 20 min at 1,500 g. Serum samples were stored at […] prior to analysis. Mortality was recorded for up to 3 weeks after injection to ensure that no additional late deaths occurred.
(§1) Cytokine measurements. TNF concentration in mouse serum and in conditioned media from RAW 264.7 cell cultures was measured by ELISA (minimum detectable concentration=10 pg/ml). […] Mouse serum IL-6 and IL-1β levels were measured using ELISA kits (R&D Systems, Inc., Minneapolis, Minn.). HMGB-1 was analyzed by western blot as previously described by Wang et al, 1999. […] Protein was electroblotting to Immun-blot PVDF membrane (Bio-rad, Hercules Calif.) and HMGB-1 was analyzed using polyclonal 241 antibody and secondary anti-rabbit horseradish peroxidase (Amersham, Pitscataway, N.J.). Standard curves were constructed using r-HMGB-1, and the intensity of the 30 kD band analyzed by densitometry. […]

[4] = tested on: HMGB-1; assay: HMGB-1 release from LPS-stimulated RAW264.7 macrophage cultures (western blot); type: cell-based, murine
Method: Cell Culture. BALB/c murine macrophage-like RAW 264.7 cells obtained from the American Type Culture Collection (ATCC Number TIB-71, ATCC, Rockville, Mass.) (61), were cultured in RPMI 1640 (Life Technologies, Grand Island, N.Y.) supplemented with 10% heat inactivated fetal bovine serum (Gemini, Calabasas, Calif.), 2 mM glutamine (Cat. # 25030-149, Gibco BRL, Rockville, Mass.) and antibiotic-antimycotic mix (Cat. # 15240-062, Gibco BRL, Rockville, Mass.) in a humidified incubator with 5% CO2. Cells were mechanically removed and resuspended in serum-free Opti-MEM I medium (Life Technology, Grand Island, N.Y.) to perform experiments at 75% confluence.
as §1

Structure (SMILES): CCOC(=O)C(C)=O [ethyl pyruvate]
- stability of aqueous solution [1]: more stable aqueous solution than sodium pyruvate
- cytomix-induced hyperpermeability of Caco-2 monolayers (FD4 clearance) [2]: significantly decreased cytomix-induced hyperpermeability
- peak serum level of IL6 [3]: attenuated
- total intracellular (cell associated) HMGB1 protein concentration ([4]; RAW264.7 cells treated with 1, 5 or 10 mM, 10 or 20 h): did not significantly influence total intracellular HMGB1 protein concentration
- LPS-induced HMGB-1 release ([4]; conditioned media, overnight (24 hrs) endotoxin exposure): significantly prevented LPS-induced HMGB-1 release in a concentration dependent manner
